Test results from the NIST ThermoML archive (doi:10.1021/je049652j).

Assay: molar heat capacity at constant pressure
Conditions: 101.33 kPa, Liquid

CCCCBr [1-bromobutane]
Conditions	molar heat capacity at constant pressure [J/K/mol]
284.15 K	159.45
286.65 K	159.98
289.15 K	160.53
291.65 K	161.01
294.15 K	161.52
296.65 K	162.08
299.15 K	162.6
301.65 K	163.08
304.15 K	163.72
306.65 K	164.22
309.15 K	164.78
311.65 K	165.34
314.15 K	165.94
316.65 K	166.49
319.15 K	167.09
321.65 K	167.67
324.15 K	168.29
326.65 K	168.83
329.15 K	169.45
331.65 K	170.09
334.15 K	170.63
336.65 K	171
339.15 K	171.94
341.65 K	172.57
344.15 K	173.26
346.65 K	173.89
349.15 K	174.51
351.65 K	175.19
353.15 K	175.47

CCCCCCCCCCBr [1-bromodecane]
Conditions	molar heat capacity at constant pressure [J/K/mol]
284.15 K	332.6
286.65 K	333.65
289.15 K	335
291.65 K	336.08
294.15 K	336.9
296.65 K	338.2
299.15 K	339.29
301.65 K	340.37
304.15 K	341.48
306.65 K	342.74
309.15 K	343.89
311.65 K	345.13
314.15 K	346.34
316.65 K	347.51
319.15 K	348.84
321.65 K	350.1
324.15 K	351.41
326.65 K	352.71
329.15 K	354.02
331.65 K	355.32
334.15 K	356.14
336.65 K	357.34
339.15 K	359.3
341.65 K	360.7
344.15 K	362.13
346.65 K	363.37
349.15 K	364.86
351.65 K	366.38
353.15 K	367.07

CCCCCCCBr [1-bromoheptane]
Conditions	molar heat capacity at constant pressure [J/K/mol]
284.15 K	244.73
286.65 K	245.56
289.15 K	246.44
291.65 K	247.28
294.15 K	248.12
296.65 K	248.93
299.15 K	249.7
301.65 K	250.38
304.15 K	251.56
306.65 K	252.33
309.15 K	253.19
311.65 K	254.14
314.15 K	255
316.65 K	255.97
319.15 K	256.84
321.65 K	257.85
324.15 K	258.76
326.65 K	259.71
329.15 K	260.68
331.65 K	261.61
334.15 K	262.5
336.65 K	262.97
339.15 K	264.64
341.65 K	265.49
344.15 K	266.52
346.65 K	267.46
349.15 K	268.47
351.65 K	269.51
353.15 K	270.03

CCCCCCBr [1-bromohexane]
Conditions	molar heat capacity at constant pressure [J/K/mol]
284.15 K	215.54
286.65 K	216.29
289.15 K	217.08
291.65 K	217.78
294.15 K	218.54
296.65 K	219.26
299.15 K	219.99
301.65 K	220.68
304.15 K	221.38
306.65 K	222.22
309.15 K	222.98
311.65 K	223.79
314.15 K	224.63
316.65 K	225.37
319.15 K	226.2
321.65 K	227.01
324.15 K	227.86
326.65 K	228.67
329.15 K	229.55
331.65 K	230.39
334.15 K	231.21
336.65 K	231.59
339.15 K	233.25
341.65 K	233.77
344.15 K	234.73
346.65 K	235.64
349.15 K	236.55
351.65 K	237.39
353.15 K	237.85

CCCCCCCCCBr [1-bromononane]
Conditions	molar heat capacity at constant pressure [J/K/mol]
284.15 K	302.55
286.65 K	303.54
289.15 K	304.62
291.65 K	305.57
294.15 K	306.69
296.65 K	307.68
299.15 K	308.8
301.65 K	309.82
304.15 K	310.95
306.65 K	311.91
309.15 K	313.01
311.65 K	314.1
314.15 K	315.18
316.65 K	316.32
319.15 K	317.44
321.65 K	318.7
324.15 K	319.8
326.65 K	320.96
329.15 K	322.16
331.65 K	323.32
334.15 K	324.63
336.65 K	325
339.15 K	326.99
341.65 K	328.13
344.15 K	329.39
346.65 K	330.49
349.15 K	331.79
351.65 K	333.04
353.15 K	333.74

CCCCCBr [1-bromopentane]
Conditions	molar heat capacity at constant pressure [J/K/mol]
284.15 K	187.88
286.65 K	188.46
289.15 K	189.17
291.65 K	189.85
294.15 K	190.33
296.65 K	190.94
299.15 K	191.57
301.65 K	192.17
304.15 K	193.01
306.65 K	193.53
309.15 K	194.17
311.65 K	194.86
314.15 K	195.6
316.65 K	196.21
319.15 K	196.98
321.65 K	197.61
324.15 K	198.35
326.65 K	199.09
329.15 K	199.8
331.65 K	200.47
334.15 K	201.48
336.65 K	201.57
339.15 K	202.76
341.65 K	203.58
344.15 K	204.33
346.65 K	205.07
349.15 K	205.89
351.65 K	206.69
353.15 K	207.05

CCCBr [1-bromopropane]
Conditions	molar heat capacity at constant pressure [J/K/mol]
269.15 K	129.02
271.65 K	129.44
274.15 K	129.78
276.65 K	130.1
279.15 K	130.48
281.65 K	130.86
284.15 K	131.2
286.65 K	131.64
289.15 K	132.01
291.65 K	132.46
294.15 K	132.78
296.65 K	133.2
299.15 K	133.64
301.65 K	134
304.15 K	134.55
306.65 K	134.93
309.15 K	135.35
311.65 K	135.8
314.15 K	136.23
316.65 K	136.68
319.15 K	137.16
321.65 K	137.6
324.15 K	138.11
326.65 K	138.55

CCCCCl [1-chlorobutane]
Conditions	molar heat capacity at constant pressure [J/K/mol]
284.15 K	156.22
286.65 K	156.75
289.15 K	157.28
291.65 K	157.7
294.15 K	158.27
296.65 K	158.86
299.15 K	159.48
301.65 K	160.05
304.15 K	160.5
306.65 K	161.06
309.15 K	161.59
311.65 K	162.24
314.15 K	162.92
316.65 K	163.42
319.15 K	164.11
321.65 K	164.82
324.15 K	165
326.65 K	165.97
329.15 K	166.72
331.65 K	167.29
334.15 K	167.78
336.65 K	168.53
339.15 K	169.12
341.65 K	170.01
344.15 K	170.43
346.65 K	170.49
349.15 K	171.5
351.65 K	173.02
353.15 K	173.09

CCCCCCCCCCCl [1-chlorodecane]
Conditions	molar heat capacity at constant pressure [J/K/mol]
284.15 K	328.57
286.65 K	329.82
289.15 K	331
291.65 K	332.01
294.15 K	333.14
296.65 K	334.13
299.15 K	335.39
301.65 K	336.61
304.15 K	337.47
306.65 K	338.66
309.15 K	339.83
311.65 K	341.39
314.15 K	342.42
316.65 K	343.41
319.15 K	345.04
321.65 K	346.36
324.15 K	346.99
326.65 K	348.75
329.15 K	350.01
331.65 K	351.31
334.15 K	352.76
336.65 K	353.39
339.15 K	355.52
341.65 K	356.17
344.15 K	357.74
346.65 K	358.38
349.15 K	359.65
351.65 K	361.49
353.15 K	362.49

CCCCCCCCl [1-chloroheptane]
Conditions	molar heat capacity at constant pressure [J/K/mol]
284.15 K	240.95
286.65 K	241.75
289.15 K	242.67
291.65 K	243.4
294.15 K	244.29
296.65 K	245.23
299.15 K	246.05
301.65 K	247.03
304.15 K	247.61
306.65 K	248.53
309.15 K	249.54
311.65 K	250.65
314.15 K	251.6
316.65 K	252.2
319.15 K	253.36
321.65 K	254.42
324.15 K	254.76
326.65 K	256.19
329.15 K	257.57
331.65 K	258.06
334.15 K	258.84
336.65 K	259.88
339.15 K	261.01
341.65 K	261.55
344.15 K	262.9
346.65 K	263.26
349.15 K	264.3
351.65 K	266.04
353.15 K	266.51
